Assay results reported in patent publication US20100324319A1, “Tame based chelators and uses thereof” (priority 2003, published 2010).

Legend:
[1] = transchelation experiments with ^67Ga^3+ labelled chelators, DTPA as competing ligand; format: physicochemical; details: ^67Ga labelled, after 10 days
Experimental: (§1) The chelators defined by compounds 8 and 15 in FIG. 1 and as described, supra, were tested in transchelation experiments, using ^111In^3+, and ^67Ga^3+, using the known chelator DTPA as a competing ligand. Labelling was carried out using standard methods.
Labelled TAME-HexA was 94% intact after 10 days, and 99% of the labelled TAME-HexB was stable after the same period of time.

[2] = transchelation experiments with ^111In^3+ labelled chelators, DTPA as competing ligand; format: physicochemical; details: ^111In labelled, after 24 hours
Experimental: as §1

O=C(O)CN(CC(=O)O)CC(CN(CC(=O)O)CC(=O)O)(CN(CC(=O)O)CC(=O)O)CN(Cc1ccccc1)Cc1ccccc1 [Compound 15, 2-[Bis(carboxymethylamino)methyl]-2-[(dibenzylamino)methyl]-propylene-1,3-dinitrilotetraacetic acid]
labelled chelator intact / stable [1]: 99%
labelled material intact [2]: about 10%
